These results are taken from ChEMBL document CHEMBL6120996, “Discovery and optimization of 1,2,4-triazole derivatives as novel ferroptosis inhibitors” (Eur J Med Chem, 2025).

The source made the active and inactive calls. The rule behind the calls is not given here.

Series [1] deals with 786-0. Put plainly: Inhibition of RSL3-induced ferroptosis in human 786-0 cells assessed as cell viability incubated for 24 hrs by CellTiter-LumiTM assay. It counts as functional, cell-based. To be noted: 786-0, 24 h.
Series [2] concerns 786-0. Put plainly: Inhibition of RSL3-induced ferroptosis in human 786-0 cells assessed as cell protection by assessing cell morphology at 1 uM incubated for 24 hrs. The series is classed as functional, cell-based.
The nature of series [3]: Metabolic stability in human plasma assessed as half life at 1 uM by LC-MS/MS analysis. It counts as ADME, cell-free.
The nature of series [4]: Antioxidant activity assessed as free radical scavenging activity at 50 uM incubated for 30 mins in dark by DPPH assay relative to control. The series is classed as functional.
Series [5] concerns SK-HEP1. Put plainly: Inhibition of RSL3 induced lipid-ROS accumulation in human SK-HEP1 cells at 1 uM incubated for 2.5 hrs by C11-BODIPY 581/591 staining coupled with flow cytometry analysis. The series is classed as functional, cell-based.
Series [6] relates to SK-HEP1. Put plainly: Inhibition of RSL3 induced lipid-ROS accumulation in human SK-HEP1 cells at 1 uM incubated for 0.5 hrs by C11-BODIPY 581/591 staining coupled with flow cytometry analysis. The series is classed as functional, cell-based. In general terms: A flow cytometer gives signals particle by particle.
Series [7] in a line: Suppression of autoxidation of liposomes egg ( unknown origin) phosphatidylcholine lipids as substrate at 0.1 to 2.5 uM incubated for 5 min by C11-BODIPY 581/591 dye based fluorescent assay. The series is classed as functional. To be noted: dose 0.1-2.5 µM.
The subject of series [8] is 786-0. Put plainly: Inhibition of RSL3-induced ferroptosis in human 786-0 cells assessed as cell viability by assessing cell morphology incubated for 24 hrs by CellTiter-LumiTM plus luminescent cell viability assay. It counts as functional, cell-based. To be noted: 786-0, 24 h.
Series [9] relates to 786-0. Briefly: Inhibition of RSL3 induced lipid-ROS accumulation in human 786-0 cells incubated for 2.5 hrs by C11-BODIPY 581/591 staining coupled with flow cytometry analysis. It counts as functional, cell-based. Particulars: dose 0.1-1 µM.
The next series deals with HT-1080. Briefly: Anti-ferroptotic activity in human GPX4 knockout HT-1080 cells assessed as cell viability at 1 uM incubated for 24 hrs by CellTiter-LumiTM plus luminescent cell viability assay. The series is classed as functional, cell-based.
The test system of series [10] is 786-0. Put plainly: Inhibition of RSL3 induced lipid-ROS accumulation in human 786-0 cells assessed as fast elimination at 1 uM measured after 0.25 to 2.5 hrs by C11-BODIPY 581/591 staining coupled with flow cytometry analysis. Particulars: time 0.25-2.5 hrs. The series is classed as functional, cell-based.

Usually EC50 stands for the concentration needed to bring the measured effect to its halfway point. Turning to `COc1cccc(C2N(c3ccccc3)N=C(C(C)=O)N2c2ccc(N(C)C)cc2)c1OCc1ccc(F)c(Cl)c1` (stereo not given), the EC50 with 786-0 [1] was 330 nM.
Take `COc1cccc(C2N(c3ccccc3)N=C(C(C)=O)N2c2ccc(N(C)C)cc2)c1OCc1c(C)cccc1C` (stereo not given): the result with 786-0 [2] was Active. Besides, the half-maximal effective concentration (EC50) with 786-0 [1] was determined as 150 nM.
A word on the half-life: it is the time in which the quantity being followed falls by half. Regarding `CC(C)[N+](C)(CCOC(=O)C1c2ccccc2Oc2ccccc21)C(C)C` [PROPANTHELINE], the half-life at 1 µM in series [3] stood at 27.9 min.
`COc1cccc(C2N(c3ccccc3)N=C(C(C)=O)N2c2ccc(N(C)C)cc2)c1OCc1cccc(Br)c1` (stereo not given): the outcome in the series on 786-0 [2] was Active. Further, in the series with 786-0 [1], the EC50 is 120 nM.
The like results for `COc1cccc(C2N(c3ccccc3)N=C(C(C)=O)N2c2ccc(N(C)C)cc2)c1OCc1ccccc1C#N` (stereo not given) were, in that order, “Active” and 150 nM.
The like results for `COc1cccc(C2N(c3ccccc3)N=C(C(C)=O)N2c2ccc(N(C)C)cc2)c1OCc1cccc(Cl)c1` (stereo not given) were, in that order, “Active” and 190 nM.
As for `COc1ccc(COc2c(OC)cccc2C2N(c3ccccc3)N=C(C(C)=O)N2c2ccc(N(C)C)cc2)cc1OC` (stereo not given), the EC50 in the series on 786-0 [1] is 300 nM.
With `COc1cccc(C2N(c3ccccc3)N=C(C(C)=O)N2c2ccc(N(C)C)cc2)c1OCc1c(F)cccc1F` (stereo not given), in the series on 786-0 [2], the result was Active. The EC50 with 786-0 [1] was found to be 120 nM.
The like results for `CC(=O)C1=NN(c2ccccc2)C(c2ccc(C)cc2OCc2ccc(Cl)cc2Cl)N1c1ccc(N(C)C)cc1` (stereo not given) were, in that order, “Active” and 710 nM.
In the case of `COc1cc(COc2c(OC)cccc2C2N(c3ccccc3)N=C(C(C)=O)N2c2ccc(N(C)C)cc2)cc(OC)c1OC` (stereo not given), the EC50 with 786-0 [1] was found to be 170 nM.
Take `CC(=O)C1=NN(c2ccccc2)C(c2cc(C)ccc2OCc2ccc(Cl)cc2Cl)N1c1ccc(N(C)C)cc1` (stereo not given): the result in the series on 786-0 [2] was Active. Moreover, the half-maximal effective concentration (EC50) in the series with 786-0 [1] came to 680 nM.
The like results for `COc1cccc(C2N(c3ccccc3)N=C(C(C)=O)N2c2ccc(N(C)C)cc2)c1OCc1ccccc1Cl` (stereo not given) were, in that order, “Active” and 150 nM.
Take `COc1cccc(C2N(c3ccccc3)N=C(C(C)=O)N2c2ccc(N(C)C)cc2)c1OCc1ccc(C(C)(C)C)cc1` (stereo not given): in the series with 786-0 [1], the concentration for a half-maximal effect (EC50) was 870 nM.
Regarding `Clc1cccc(CNC2=Nc3ccccc3NC23CCNCC3)c1`, the result in series [4] was Active. For the same molecule, the inhibition entry in the series with SK-HEP1 [5] and with SK-HEP1 [6] was “Active” each time.
With `COc1cccc(C2N(c3ccccc3)N=C(C(C)=O)N2c2ccc(N(C)C)cc2)c1OCc1ccc(Cl)cc1` (stereo not given), the outcome with 786-0 [2] was Active. Further, the 50% effective concentration (EC50) in the series with 786-0 [1] worked out at 120 nM.
`Cc1c(C)c2c(c(C)c1O)CCC(C)(C(=O)O)O2` (stereo not given): the Activity result in series [7] was “Dose-dependent-effect”. Moreover, the outcome in [4] was Active.
On to `COc1cccc(C2N(c3ccccc3)N=C(C(C)=O)N2c2ccc(N(C)C)cc2)c1OCc1cccc2ccccc12` (stereo not given), for which the outcome in the series on 786-0 [2] was Active. Moreover, in the series with 786-0 [1], the concentration giving a half-maximal response (EC50) was 190 nM.
The like results for `CC(=O)C1=NN(c2ccccc2)C(c2ccccc2OCc2ccc(Cl)cc2Cl)N1c1ccc(N(C)C)cc1` (stereo not given) were, in that order, “Active” and 390 nM.
For the molecule `COc1cccc(C2N(c3ccccc3)N=C(C(C)=O)N2c2ccc(N(C)C)cc2)c1OCc1ccc(C#N)cc1` (stereo not given), the outcome with 786-0 [2] was Active. Moreover, the 50% effective concentration (EC50) in the series on 786-0 [1] was found to be 150 nM.
The like results for `COc1cccc(C2N(c3ccccc3)N=C(C(C)=O)N2c2ccc(N(C)C)cc2)c1OCc1cc(Cl)cc(Cl)c1` (stereo not given) were, in that order, “Active” and 3710 nM.
The like results for `COc1cccc(C2N(c3ccccc3)N=C(C(C)=O)N2c2ccc(N(C)C)cc2)c1OCc1ccc(C(F)(F)F)cc1` (stereo not given) were, in that order, “Active” and 80 nM.
For the molecule `COc1cc(COc2c(OC)cccc2C2N(c3ccccc3)N=C(C(C)=O)N2c2ccc(N(C)C)cc2)ccc1F` (stereo not given), in the series on 786-0 [1], the EC50 came to 170 nM.
On to `COc1cccc(C2N(c3ccccc3)N=C(C(C)=O)N2c2ccc(N(C)C)cc2)c1OCc1ccc(Cl)cc1Cl` (stereo not given), for which the outcome in the series with 786-0 [2] was Active. The EC50 in the series on 786-0 [1] stood at 260 nM.
With `CCOC(=O)c1ccc(NC2CCCCC2)c(N)c1`, in the series on 786-0 [8], the EC50 was found to be 67 nM. Also, the outcome (in series [4]; in the series with HT-1080) was Active. For the same molecule, the inhibition entry in the series on 786-0 [9] was “Dose-dependent-effect”. Moreover, the inhibition entry in the series with SK-HEP1 [5], in the series on SK-HEP1 [6] and in the series on 786-0 [10] was “Active” each time.
Regarding `CC(=O)C1=NN(c2ccccc2)C(c2cccc(C)c2OCc2ccc(Cl)cc2Cl)N1c1ccc(N(C)C)cc1` (stereo not given), the outcome in the series with 786-0 [2] was Active. Also, in the series with 786-0 [1], the EC50 stood at 1230 nM.
The like results for `COc1cccc(C2N(c3ccccc3)N=C(C(C)=O)N2c2ccc(N(C)C)cc2)c1OCc1ccc(C)cc1` (stereo not given) were, in that order, “Active” and 130 nM.
The like results for `COc1cccc(COc2c(OC)cccc2C2N(c3ccccc3)N=C(C(C)=O)N2c2ccc(N(C)C)cc2)c1` (stereo not given) were, in that order, “Active” and 150 nM.
As for `CC(=O)C1=NN(c2ccccc2)C(c2cc(C)c(OCc3ccc(Cl)cc3Cl)c(C)c2)N1c1ccc(N(C)C)cc1` (stereo not given), the EC50 in the series on 786-0 [1] worked out at 150 nM.
Regarding `COc1cccc(C2N(c3ccccc3)N=C(C(C)=O)N2c2ccc(N(C)C)cc2)c1OCc1ccc(F)cc1` (stereo not given), in the series on 786-0 [2], the outcome was Active. In the series on 786-0 [1], the EC50 is 140 nM.
In the case of `COc1cccc(C2N(c3ccccc3)N=C(C(C)=O)N2c2ccc(N(C)C)cc2)c1OCc1c(C)cc(C)cc1C` (stereo not given), the concentration for a half-maximal effect (EC50) with 786-0 [1] worked out at 360 nM.
Consider `COc1cccc(C2N(c3ccccc3)N=C(C(C)=O)N2c2ccc(N(C)C)cc2)c1OCc1ccc(Br)cc1` (stereo not given), for which the result in the series on 786-0 [2] was Active. Further, the EC50 with 786-0 [1] was 100 nM.
